Among the data in paper PMC9516332 (Frontiers in Oncology, 2022) are inhibition values, retold here.

SMILES strings stand for the structures. Read-outs that look alike come from different tables or passages of the source.

Common to all, as to test: Kinase panel profiling at 1 µmol/L (MSA or IMAP), percentage inhibition
Type in all cases: biochemical

Assay [1] concerns the target panel of 255 wild-type kinases (Homo sapiens, UniProt Q13153). As to conditions: PAK1; 1 µmol/L single concentration; read-out: %-inhibition, PAK1.
The target in assay [2] is panel of 255 wild-type kinases (Homo sapiens, UniProt O60674). As to conditions: kinase JAK2; 1 µmol/L single concentration; read-out: %-inhibition at 1 µmol/L, JAK2.
The target in assay [3] is panel of 255 wild-type kinases (Homo sapiens, UniProt P35968). As to conditions: read-out: %-inhibition at 1 µmol/L, KDR.
Assay [4] concerns the target panel of 255 wild-type kinases (Homo sapiens, UniProt P41240). The following applies: kinase CSK; 1 µmol/L single concentration; read-out: %-inhibition at 1 µmol/L, CSK.
For assay [5], the target named is panel of 255 wild-type kinases (Homo sapiens, UniProt Q00534). As to conditions: CDK6/CycD3 kinase assay; 1 µmol/L single concentration; read-out: %-inhibition CDK6/CycD3.
Assay [6] deals with T1, panel of 255 wild-type kinases (Homo sapiens, UniProt Q9H093).
T1 sequence (Q9H093 1-628): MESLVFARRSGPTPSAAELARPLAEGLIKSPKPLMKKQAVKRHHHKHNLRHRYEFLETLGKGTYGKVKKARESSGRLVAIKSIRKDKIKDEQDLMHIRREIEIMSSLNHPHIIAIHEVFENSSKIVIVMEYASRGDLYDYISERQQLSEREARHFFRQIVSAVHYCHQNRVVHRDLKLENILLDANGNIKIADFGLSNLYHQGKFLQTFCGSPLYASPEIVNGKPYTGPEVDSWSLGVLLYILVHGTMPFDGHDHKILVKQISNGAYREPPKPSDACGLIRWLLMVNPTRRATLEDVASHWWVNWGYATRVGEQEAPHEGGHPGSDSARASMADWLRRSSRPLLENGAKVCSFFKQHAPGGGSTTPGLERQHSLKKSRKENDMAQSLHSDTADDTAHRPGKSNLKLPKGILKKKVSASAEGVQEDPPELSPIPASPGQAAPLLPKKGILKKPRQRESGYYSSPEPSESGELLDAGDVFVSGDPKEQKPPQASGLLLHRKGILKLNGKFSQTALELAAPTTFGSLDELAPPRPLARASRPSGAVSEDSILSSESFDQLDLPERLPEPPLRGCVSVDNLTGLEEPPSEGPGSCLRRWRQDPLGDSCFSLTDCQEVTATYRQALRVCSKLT
The following applies: NuaK2; 1 µmol/L single concentration; read-out: %-inhibition, NuaK2.

In assay [7] the target is panel of 255 wild-type kinases (Homo sapiens, UniProt P06213). The following applies: kinase INSR; 1 µmol/L single concentration; read-out: %-inhibition at 1 µmol/L, INSR.
The target of assay [8] is T2, panel of 255 wild-type kinases (Homo sapiens, UniProt Q13188).
T2 sequence (Q13188 1-491): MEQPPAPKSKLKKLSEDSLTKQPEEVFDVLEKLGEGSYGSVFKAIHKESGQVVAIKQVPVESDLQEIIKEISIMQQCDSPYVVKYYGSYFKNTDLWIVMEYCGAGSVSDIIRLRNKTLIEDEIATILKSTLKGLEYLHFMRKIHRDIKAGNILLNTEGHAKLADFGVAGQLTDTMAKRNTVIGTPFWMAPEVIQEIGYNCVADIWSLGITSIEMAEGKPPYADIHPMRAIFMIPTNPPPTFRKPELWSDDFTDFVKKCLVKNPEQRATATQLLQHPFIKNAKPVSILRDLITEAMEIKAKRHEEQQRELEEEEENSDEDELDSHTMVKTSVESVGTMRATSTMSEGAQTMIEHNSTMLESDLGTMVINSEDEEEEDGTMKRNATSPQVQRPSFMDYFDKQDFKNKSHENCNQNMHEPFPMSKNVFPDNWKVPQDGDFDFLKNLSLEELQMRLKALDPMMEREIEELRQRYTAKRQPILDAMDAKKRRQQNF
The following applies: MST2; 1 µmol/L single concentration; read-out: %-inhibition, MST2.

The target in assay [9] is panel of 255 wild-type kinases (Homo sapiens, UniProt P07948). As to conditions: kinase LYNa; 1 µmol/L single concentration; read-out: %-inhibition at 1 µmol/L, LYNa.
The target of assay [10] is panel of 255 wild-type kinases (Homo sapiens, UniProt P08581). As to conditions: MET; 1 µmol/L single concentration.
Assay [11] addresses panel of 255 wild-type kinases (Homo sapiens, UniProt P12931). The following applies: kinase SRC; 1 µmol/L single concentration; read-out: %-inhibition at 1 µmol/L, SRC.
Assay [12] addresses panel of 255 wild-type kinases (Homo sapiens, UniProt P53350). As to conditions: kinase PLK1; 1 µmol/L single concentration; read-out: %-inhibition at 1 µmol/L, PLK1.
[13] abbreviates: kinase KDR, 1 µmol/L single concentration.

On to `CCn1c(=O)c(-c2cc(NC(=O)Nc3ccccc3)c(F)cc2Br)cc2cnc(NC)cc21` [ripretinib], for which the inhibition at 1 µM in [1] is 0.719%; in assay [2], 63%; in assay [3] (setting [13]), 111%; in assay [4], 50%; in assay [5], -7%; in [6], 1.36%. The inhibition at 1 µM in assay [7] was 1.55%; in assay [8], 0.11%; in assay [9], 85%; in assay [10], 8%; in assay [11], 71%; in assay [12], 4%.

`COc1ccc(CN2C3CC2CN(c2ccc(-c4cc(OCC(C)(C)O)cn5ncc(C#N)c45)cn2)C3)cn1` [selpercatinib]: the inhibition at 1 µM was -5.31% in assay [1]; 27% in assay [2]; 99% in assay [3]; 1.77% in assay [4]; 0.675% in assay [5]; 4% in [6]. Further, the inhibition at 1 µM is 1.51% in assay [7]; 0.47% in assay [8]; 60% in assay [9]; 23% in assay [10]; 48% in assay [11]; -0.437% in assay [12].

As to `Cn1cnc2c(F)c(Nc3ccc(Br)cc3Cl)c(C(=O)NOCCO)cc21` [selumetinib], the inhibition at 1 µM is 7% in assay [1]; -0.0152% in [2]; 2.42% in assay [3] (setting [13]); 0.0795% in [4]; -3.49% in assay [5]; 6% in assay [6]. Moreover, the inhibition at 1 µM is 3% in [7]; -2.14% in [8]; 6.53% in assay [9]; -0.807% in [10]; -2.83% in assay [11]; -4% in [12].

For the molecule `Cc1cc(Nc2ncnc3ccc(NC4=NC(C)(C)CO4)cc23)ccc1Oc1ccn2ncnc2c1` [tucatinib], the inhibition at 1 µM in [1] is -1.11%; in assay [2] it was 4.51%; in assay [3] (setting [13]), 4.29%; in assay [4], 6%; in [5], -2.12%; in assay [6], 6.61%. The inhibition at 1 µM in [7] was 3%; in [8], -1.17%; in assay [9] it was 7%; in assay [10], 5.33%; in assay [11], -2%; in assay [12], -3.69%.
